Results published in US20150223457A1, “METHOD OF COMBATTING SOYBEAN SUDDEN DEATH SYNDROME USING SUBSTITUTED PYRAZOLAMIDES” (Syngenta Participations AG, priority 2012, published 2015).

What was measured:
Fusarium virguliforme [1] = assay: Seed treatment efficacy against soybean sudden death syndrome (inoculated seeds in rolled paper towels); format: in vivo; details: fungicide rate 2.5 mg a.i./100 kg seed; soybean cultivar S36-B6, isolate 10-118, hypocotyls and roots, 19 days at 18° C., mean of 3 replications
Experimental: A study was conducted to determine the efficacy of the compound No. 1.001 against F. virguliforme the causal agent of the sudden death syndrome on soybeans. Soybean seeds of the cultivar S36-B6 were treated with the compound No. […] […] Ten soybean seeds were placed on a paper towel (Scotts paper towels, 25.4 cm×33.02 cm in size) that has been previously moistened with 40 milliliters of water. Seeds were inculated with 100 microliters of a F. virguliforme conidial suspension adjusted to 100,000 conidia per milliliter of water. The isolate with the identification number 10-118 of F. virguliforme was used used in this study since it is sensitive to fludioxonil. Inoculated seeds seeds were then covered with another paper towel. Starting at one end, the paper towels with seeds were rolled loosely in a cylinder-fashion. The rolled paper towels with the inoculated seeds were placed into a zipped plastic bag. Bags were labelled with the fungicide treatment and dated. Bags with seeds were then placed in a growth room at a temperature of 18° C. and 12 h photoperiod for 19 days. The study was conducted using a completely randomized design with 3 replications. Disease severity was conducted on the hypocotyls and roots and measured as percentage.

Fusarium virguliforme [2] = assay: Sensitivity of F. virguliforme isolates: mycelial growth inhibition on amended potato dextrose agar plates; format: cell-based; details: for ED50 (effective dose for 50% of the fungal growth inhibition): potato dextrose agar, 20° C., 9 days
Experimental: The sensitivity of 4 F. virguliforme isolates to the compound No. 1.001 was determined by comparing the mycelial growth inhibition of on potato dextrose agar plates amended or not with the compound No. 1.001. The compound No. 1.001 was tested at the following concentrations: 0, 0.001, 0.01, 0.1, 1 and 10 mg.ai./L. The fungicide fludioxonil (commercial formulation Maxim 4 FS) was included in the sensitivity study. The plates were incubated at 20° C. for 9 days. The sensitivity test was set in a completely randomized design with 2 replications for each concentration of fungicide tested. Data obtained for each isolate was transformed using an arcsine transformation. The effective dose for 50% of the fungal growth inhibition (ED50 values) was calculated by regressing the transformed growth inhibition data against the log of the fungicide concentration.

N#Cc1c[nH]cc1-c1cccc2c1OC(F)(F)O2 [Fludioxonil, fludioxonil]
% disease severity (Fusarium virguliforme [1]): 20.9%
ED50 (effective dose for 50% of the fungal growth inhibition) (Fusarium virguliforme [2]; isolate 10-118): 0.206 mg ai/L
ED50 (effective dose for 50% of the fungal growth inhibition) (Fusarium virguliforme [2]; isolate 10-119): >10 mg ai/L
ED50 (effective dose for 50% of the fungal growth inhibition) (Fusarium virguliforme [2]; isolate 10-120): >10 mg ai/L
ED50 (effective dose for 50% of the fungal growth inhibition) (Fusarium virguliforme [2]; isolate 10-230): >10 mg ai/L
sensitivity of isolate to the fungicide (in words) (Fusarium virguliforme [2]; one isolate of 4): sensitive
dose response of isolates to the fungicide (in words) (Fusarium virguliforme [2]; the other 3 isolates of 4): not a dose response
